In PMC8920107 (ADMET & DMPK, 2020):
“And” between values parts separate entries of the source, which are not always exact repeats. Equal entries are not always repeated. Where two headings read alike, the source gives them in different places.

Tests used:
[1] = Human plasma protein binding by rapid equilibrium dialysis (RED); assay type: in vitro ADME; settings: 100 % pooled human plasma, pH 7.4, 37 °C
Procedure: The test compounds were prepared in 100 % pooled human plasma. The measurement was performed using equilibrium dialysis with the two compartments separated by a semi-permeable membrane. The plasma solution was added to one side of the membrane while buffer (pH 7.4) was added to the other side. The system was allowed to reach equilibrium at 37 °C. Compound concentration on both sides of the membrane was measured by LC-MS/MS, and the fraction of unbound compound calculated. Calibration standards were prepared in plasma and buffer. Test compound incubations were performed in triplicate. A control compound was included in each experiment. The solutions for each batch of compounds were combined into two groups (protein-free and protein-containing). Cassette analysed by LC-MS/MS using two sets of calibration standards for protein-free solutions (7 points) and protein-containing solutions (7 points). The experiments were carried out at Cyprotex Discovery Ltd (UK) and repeated at Sygnature Discovery Ltd (UK) laboratories using their generic LC/MS method. The unbound fraction (fu) is calculated from the concentration of the test compound in the protein-containing side Cp and the protein-free side Cf based on the formula: […]

AGP [2] = settings: cited from earlier work
[3] = Estimated lung tissue binding from biomimetic HPLC data (model equation); settings: standard 6 min protocol data
Text: (§1) Thus, the regression coefficients in linear regression analysis are meaningful and reflect to the physiological proportion of the albumin and phospholipids in the body. […] They are based on the calibrated retention times obtained on C-18, IAM, Chiralpak HSA and Chiralpak AGP columns.

[4] = Estimated brain tissue binding and brain to blood ratio from biomimetic HPLC data (model equations); settings: standard 6 min protocol data; for %BTB: brain tissue binding; for Kp at 0.1 h: read-out: Brain to plasma
Text: as §1

[5] = Estimated total plasma protein binding from biomimetic HPLC data (model equation); settings: from % HSA, % AGP and lipophilicity, standard 6 min protocol; for fraction unbound: human, read-out: Estimated % plasma protein binding (PPB) (converted)
Text: as §1

[6] = cited from earlier work
[7] = biological target: human serum albumin (HSA) (Homo sapiens, UniProt P02768); experiment: Albumin binding by biomimetic HPLC on Chiralpak HSA column; settings: for fraction unbound: human, Chiralpak HSA HPLC column (immobilised human serum albumin), pH 7.4; for % HSA bound: standard 6 min IPA gradient up to 35 %, pH 7.4, racemate; for log k (HSA): standard 6 min IPA gradient, racemate; for calculated % binding, HSA 5 % IPA: isocratic 5 % IPA, partial calibration set; for calculated % binding, HSA 15 % IPA: isocratic 15 % IPA
Sequence of human serum albumin (HSA) (P02768 25-609): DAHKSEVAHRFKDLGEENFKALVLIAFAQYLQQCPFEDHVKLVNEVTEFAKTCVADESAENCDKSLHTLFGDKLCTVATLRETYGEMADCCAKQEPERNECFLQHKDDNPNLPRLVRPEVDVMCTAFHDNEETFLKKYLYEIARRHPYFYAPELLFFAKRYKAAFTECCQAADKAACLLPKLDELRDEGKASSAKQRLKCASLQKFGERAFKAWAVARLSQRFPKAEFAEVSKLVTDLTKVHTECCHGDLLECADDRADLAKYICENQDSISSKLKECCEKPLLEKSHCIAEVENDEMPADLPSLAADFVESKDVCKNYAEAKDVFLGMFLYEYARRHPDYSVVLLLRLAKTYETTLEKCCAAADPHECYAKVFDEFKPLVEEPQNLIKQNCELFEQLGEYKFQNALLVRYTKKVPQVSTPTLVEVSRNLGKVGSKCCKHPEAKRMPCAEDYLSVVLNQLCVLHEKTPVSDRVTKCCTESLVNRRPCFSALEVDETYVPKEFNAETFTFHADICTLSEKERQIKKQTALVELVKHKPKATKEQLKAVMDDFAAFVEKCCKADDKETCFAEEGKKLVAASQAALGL
Procedure: (§2) The protein binding measurements were carried out on Chiralpak HSA and Chiralpak AGP columns with the dimensions of 3 x 50 mm with 5 um particle size stationary phase (Chiril Technologies Europe, France). The mobile phase was 50 mM ammonium acetate adjusted to pH 7.4 with a flow rate of 1.2 mL/min. […] The cycle time was 6 min with an additional 1 min re-equilibration time.
(§3) The cycle time was 8 min plus an additional 1 min re-equilibration time.

[8] = both in animals and in human; cited from earlier work
[9] = Phospholipid binding at pH 7.4 on Immobilized Artificial Membrane (IAM) HPLC column; assay type: physicochemical; settings: pH 7.4, standard 6 min protocol
Procedure: The phospholipid-binding was measured using an IAM PC.DD2 column with dimensions of 100 x 4.6 mm (Regis Technologies Inc., Morton Grove, IL, USA). The gradient retention times of the compounds were measured using a 50 mM ammonium acetate starting mobile phase with the pH adjusted to 7.4. The mobile phase flow rate was 1.5 mL/min. […] The cycle time was 6 min plus an additional 1 min equilibration time was applied while the injector prepared for the next injection. The gradient retention times were calibrated with the acetophenone homologues for which the CHI IAM values have been established using isocratic measurements [26]. The Chromatographic Hydrophobicity Index on the IAM column [CHI(IAM)] approximates to the acetonitrile concentration in the mobile phase when the compound elutes. CHI(IAM) values above 45 indicate strong phospholipid binding. Repeating the retention time measurements provided the error only in the third digit of the minute (±0.005).

[10] = test system: α-1-acid-glycoprotein (AGP); experiment: Glycoprotein binding by biomimetic HPLC on Chiralpak AGP column; settings: for % AGP bound: standard 6 min IPA gradient up to 35 %, pH 7.4, racemate; for calculated % binding, AGP 5 % IPA: isocratic 5 % IPA; for calculated % binding, AGP 5 % IPA / calculated % binding, AGP 8 % IPA / calculated % binding, AGP 15 % IPA: 1.2 mL/min; for calculated % binding, AGP 8 % IPA: isocratic 8 % IPA; for calculated % binding, AGP 15 % IPA: isocratic 15 % IPA
Procedure: as §2, §3

[11] = Estimated volume of distribution, unbound volume of distribution and drug efficiency from biomimetic HPLC data; settings: standard 6 min protocol data
Text: as §1

[12] = cited from earlier work; remark: listed apart in the source
[13] = set-up: method as in PMID 11472245; settings: calibration set of compounds, predefined values; cited from earlier work
AGP [14] = experiment: Literature AGP binding by equilibrium dialysis
HSA [15] = test system: HSA
HSA [16] = settings: cited from earlier work; for % HSA: calibration drugs, equilibrium dialysis literature % binding
[17] = calibration compounds, literature value, no reference given; cited from earlier work
[18] = Estimated cell partition coefficient from IAM binding (model equation); settings: standard 6 min protocol data
Text: as §1

[19] = Chromatographic Hydrophobicity Index (CHI) lipophilicity at three pHs, C-18 gradient HPLC; assay type: physicochemical
Procedure: Gemini NX C-18(2) 5 um columns with dimensions of 3 x 50 mm (Phenomenex Ltd. Macclesfield, UK) were used for the determination of the Chromatographic Hydrophobicity Index (CHI) and the CHIlogD values. […] An acetonitrile linear gradient was used from 0 to 100 %. The acetonitrile concentration reached 100 % in 3.5 min. The 100 % acetonitrile mobile phase was maintained for an additional 1 min before it was returned to 0 % at 4.7 min. The cycle time of the gradient run was 6 min, with an additional equilibration time of 1 min before the next injection. The error in the retention time measurements is ±0.005 min in general after repeated injections.

[20] = Phospholipidotic potential (CAD-likeness) from CHI values; settings: CHI (IAM) + (CHI at pH 10.5 – CHI at pH 7.4)
[21] = calibration drugs, equilibrium dialysis literature % binding

## CCN(CC)CCCC(C)Nc1ccnc2cc(Cl)ccc12 (stereo not drawn) [CQ, Chloroquine]
[1]
  fraction unbound: 0.474
AGP [2]
  % AGP bound: 48.4%
[3]
  % LTB: 96.3%
[4]
  %BTB: 98.4%
  Kp at 0.1 h: 3.4
[5]
  Estimated % plasma protein binding (PPB): 94.8%
  fraction unbound: 0.05
[6]
  Measured log I (ChemSpider): 2.68-4.63
[7]
  fraction unbound: 0.178
  % HSA bound: 87% and 87.6%
  log k (HSA): 0.8
[8]
  phospholipidosis: causes phospholipidosis
[9]
  log k (IAM): 2.6
[10]
  % AGP bound: 88.8%
[11]
  Vd: 6.9 L/kg
  Vdu: 56.1 L/kg
[12]
  volume of distribution described in the literature: over 100 L/kg

## Cn1c(=O)c2nc(-c3ccccc3)[nH]c2n(C)c1=O [Phenyl theophylline]
[13]
  CHI at pH 2.6: 51.7
  CHI at pH 7.4: 51.2
  CHI at pH 10.5: 51.3

## CCCCC(=O)c1ccccc1 [Valerophenone]
[13]
  CHI at pH 2.6: 96.4
  CHI at pH 7.4: 96.20
  CHI at pH 10.5: 96.36

## Cn1c(=O)c2[nH]cnc2n(C)c1=O [Theophylline]
[13]
  CHI at pH 2.6: 17.9
  CHI at pH 7.4: 18.4
  CHI at pH 10.5: 5.0

## CC(=O)CC(c1ccccc1)c1c(O)c2ccccc2oc1=O (stereo not drawn) [Warfarin]
AGP [14]
  log k (AGP): 0.7
AGP [2]
  % AGP: 83.2%
HSA [15]
  log k (HSA): 1.5

## NC(=O)N1c2ccccc2C=Cc2ccccc21 [Carbamazepine]
AGP [14]
  log k (AGP): 0.3
AGP [2]; [21]
  % AGP: 65%
HSA [16]
  % HSA: 75.0%
HSA [15]
  log k (HSA): 0.5

## COc1cc(Cc2cnc(N)nc2N)cc(OC)c1OC [Trimethoprim]
AGP [14]
  log k (AGP): -0.1
AGP [2]; [21]
  % AGP: 46.2%
HSA [16]
  % HSA: 37.6%
HSA [15]
  log k (HSA): -0.2

## CNC(=C[N+](=O)[O-])NCCSCc1csc(CN(C)C)n1 [Nizatidine]
AGP [14]
  log k (AGP): -0.2
AGP [2]; [21]
  % AGP: 37.1%
HSA [16]
  % HSA: 20.4%
HSA [15]
  log k (HSA): -0.6

## COc1cc2c(c(OC)c1OC)-c1ccc(OC)c(=O)cc1[C@@H](NC(C)=O)CC2 [Colchicine]
[13]
  CHI at pH 2.6: 43.9
  CHI at pH 7.4: 45.0
  CHI at pH 10.5: 43.9

## CCC(=O)c1ccccc1 [Propiophenone]
[13]
  CHI at pH 2.6: 77.4
  CHI at pH 7.4: 77.4
  CHI at pH 10.5: 77.4

## c1ccc2[nH]cnc2c1 [Benzimidazole]
[13]
  CHI at pH 2.6: 6.3
  CHI at pH 7.4: 34.3
  CHI at pH 10.5: 30.6

## COc1ccc2c(c1)c(CC(=O)O)c(C)n2C(=O)c1ccc(Cl)cc1 [Indomethacin]
AGP [14]
  log k (AGP): 0.1
AGP [2]; [21]
  % AGP: 56%
HSA [15]
  log k (HSA): 1.8

## c1ccc(-c2nn[nH]n2)cc1 [Phenyl tetrazole]
[13]
  CHI at pH 2.6: 42.2
  CHI at pH 7.4: 23.6
  CHI at pH 10.5: 16.0

## CCCC(=O)c1ccccc1 [Butyrophenone]
[13]
  CHI at pH 2.6: 87.3
  CHI at pH 7.4: 87.5
  CHI at pH 10.5: 87.3

## CC(=O)c1ccccc1 [Acetophenone]
[13]
  CHI at pH 2.6: 64.1
  CHI at pH 7.4: 65.1
  CHI at pH 10.5: 64.1

## c1ccc2[nH]ccc2c1 [Indole]
[13]
  CHI at pH 2.6: 72.1
  CHI at pH 7.4: 71.5
  CHI at pH 10.5: 72.1

## CC(C)NCC(O)COc1cccc2ccccc12 (stereo not drawn) [Propranolol]
AGP [14]
  log k (AGP): 0.8
AGP [2]; [21]
  % AGP: 86%
HSA [16]
  % HSA: 66.6%
HSA [15]
  log k (HSA): 0.3
[7]; 1.2 mL/min
  calculated % binding, HSA 5 % IPA: 0.76 (54 %)
  calculated % binding, HSA 15 % IPA: 0.58 (66 %)
[7]; isocratic 8 % IPA, 1.2 mL/min
  calculated % binding, HSA 8 % IPA: 0.73 (57.6 %)
[17]
  % PPB (binds to plasma proteins): propranolol (66 % PPB)
[10]
  calculated % binding, AGP 5 % IPA: 2.78 (85 %)
  calculated % binding, AGP 8 % IPA: 1.73 (68 %)
  calculated % binding, AGP 15 % IPA: 1.58 (67 %)

## O=C(O)Cc1ccccc1Nc1c(Cl)cccc1Cl [Diclofenac]
AGP [14]
  log k (AGP): 0.2

## CCN(CCO)CCCC(C)Nc1ccnc2cc(Cl)ccc12 (stereo not drawn) [HCQ, hydroxy-chloroquine]
[1]
  fraction unbound: 0.693
AGP [2]; equilibrium dialysis method
  % AGP bound: 34%
[18]
  Kpcell: 7.3
HSA [16]; equilibrium dialysis method
  % HSA bound: 40%
[19]; Gemini NX C-18(2) HPLC column, pH 7.4, C-18 gradient HPLC, racemate not resolved, read-out: CHI log D (pH 7.4)
  chromatographic logD: 0.66
[19]; from pH 10.5 mobile phase, read-out: CHI log P
  chromatographic logP: 2.13
[3]
  % LTB: 93.9%
[4]
  %BTB: 97.6%
  est log k BB: 0.8
  Kp at 0.1 h: 2.8
[5]
  Estimated % plasma protein binding (PPB): 93.4%
  fraction unbound: 0.07
[7]
  fraction unbound: 0.181
  % HSA bound: 84.9%
  log k (HSA): 0.7
[9]
  log k (IAM): 2.5
[10]
  % AGP bound: 89.0%
[10]; standard 6 min IPA gradient, racemate
  log k (AGP): 0.9
[20]
  Phospholipidotic potential (CAD-likeness): 73.6
[11]; human
  Vd: 5.8 L/kg
[11]
  Vd: 5.1 L/kg
  Vdu: 38.8 L/kg
[12]
  volume of distribution described in the literature: over 100 L/kg
[12]; healthy volunteers
  Vd: above 4000 L/kg

## COC(=O)C1=C(C)NC(C)=C(C(=O)OCCN(C)Cc2ccccc2)C1c1cccc([N+](=O)[O-])c1 (stereo not drawn) [Nicardipine]
AGP [14]
  log k (AGP): 0.8
AGP [2]; [21]
  % AGP: 87%
HSA [15]
  log k (HSA): 1.2
[7]; 1.2 mL/min
  calculated % binding, HSA 5 % IPA: 6 (96 %)
  calculated % binding, HSA 15 % IPA: 1.05 (95 %)
[17]
  % PPB (binds to plasma proteins): nicardipine (96 % PPB)
[10]
  calculated % binding, AGP 5 % IPA: >8 min (>98 %)
  calculated % binding, AGP 8 % IPA: 5.63 (98 %)
  calculated % binding, AGP 15 % IPA: 5.0 (96 %)

## CC(=O)Nc1ccc(O)cc1 [Paracetamol]
AGP [14]
  log k (AGP): -1.5
AGP [2]; [21]
  % AGP: 3.2%
HSA [16]
  % HSA: 14.0%
HSA [15]
  log k (HSA): -0.8
